US20160355684A1, “ANTHRAQUINONE DYE USED FOR A COLOR FILTER OF A LCD” (DOW GLOBAL TECHNOLOGIES LLC, priority 2014, published 2016)

What was measured:
Format in all cases: physicochemical
[1] = Thermal stability of films (chromaticity difference ΔEab after baking); settings: for ΔEab after baking at 230° C. for 1 h: film of dye in alkaline soluble acrylic resin on glass, hard bake 230° C., air, smaller value = better heat resistance
Procedure: 0.15 g of Dye 1, 1.35 g PGMEA and 1.00 g of alkaline soluble acrylic resin solution (MIPHOTO RPR4022, supplied from Miwan Commercial Co., Ltd., 25 to 35% of solid content in (methyl 3-methoxypropionate)) were mixed and stirred for overnight at room temperature using a shaker. The solution was filtered with a 0.45 μm Acrodisc CR PTFE filter to get rid of big particles. Then the filtered solution was spin coated onto a clean glass substrate with 400 rpm spin speed for 18 seconds. The obtained film was first dried at 90° C. under air atmosphere for 30 minutes, and then hard baked at 230° C. under air atmosphere for 1 hour. The CIE values (xyY values and lab values) and the UV-Vis were measured before and after the hard bake.
The obtained dry film was further baked at 230° C. under air for 1 hour to evaluate thermal stability of the film. Optical performance after baking (ΔEab value) was 1.8, and the one of after further baking was 2.7. A smaller ΔEab value indicates better heat resistance.
(4) Thermal Stability of Films (Chromaticity):
The wet film after spin coating is dried in oven at 90° C. for 30 minutes and then soft baked at 150° C. for 15 minutes. The chromaticity coordinates (L, a, b) are recorded with UltraScan Pro (Hunterlab) colorimeter. D65/10 light source is used and results are based on CIE Lab coordinates. After that the film is hard baked at target temperature (230° C.) for 1 hour and the new chromaticity coordinates (L′, a′, b′) are recorded with the method above. The thermal stability of a film is indicated by the difference of chromaticity coordinate after baking at 230° C. represented by the following formula;
ΔE=√{square root over ((L−L′)^2+(a−a′)^2+(b−b′)^2)}

[2] = Solubility of dye in PGMEA; settings: solvent PGMEA (propylene glycol monomethyl ether acetate)
[3] = Thermal stability of dyes (mass loss measured by TGA); settings: dye itself
Procedure: (1) Thermal Stability of Dyes (Mass Loss Measured by TGA):
The thermal stability of dye itself was determined by the mass loss of dye measured by TGA under air atmosphere at 230° C. for 1 hour. This evaluation reflects chemical stability of the dye itself.

SMILES: CC(C[Si](C)(O[Si](C)(C)C)O[Si](C)(C)C)C(=O)OCCNc1ccc(NCCOC(=O)C(C)C[Si](C)(O[Si](C)(C)C)O[Si](C)(C)C)c2c1C(=O)c1ccccc1C2=O (centres unmarked) [(QS), reference compound]
- ΔEab after baking at 230° C. for 1 h [1]: 24.5 (color changed
- Solubility in PGMEA (wt %) [2]: ~4.6 wt %

SMILES: Cc1cc(OCCC[Si](C)(O[Si](C)(C)C)O[Si](C)(C)C)cc(C)c1Nc1ccc(Nc2c(C)cc(OCCC[Si](C)(O[Si](C)(C)C)O[Si](C)(C)C)cc2C)c2c1C(=O)c1ccccc1C2=O [Dye 1]
- Optical performance after baking (ΔEab value) ([1]; Dye 1 film, after baking): 1.8
- ΔEab value after further baking ([1]; Dye 1 film, further baked at 230° C. under air for 1 hour): 2.7
- ΔEab after baking at 230° C. for 1 h [1]: 3.2
- Solubility in PGMEA (wt %) [2]: 17 wt %
- weight loss at 230° C. for 1 h in air from TGA [3]: 7.74%

SMILES: Cc1cc(C)c(Nc2ccc(Nc3c(C)cc(OCCC[Si](C)(C)O[Si](C)(C)O[Si](C)(C)CCCOc4cc(C)c(Nc5ccc(Nc6c(C)cc(C)cc6C)c6c5C(=O)c5ccccc5C6=O)c(C)c4)cc3C)c3c2C(=O)c2ccccc2C3=O)c(C)c1 [Dye 2]
- weight loss at 230° C. for 1 h in air from TGA [3]: 2.49%

SMILES: Cc1cc(C)c(Nc2ccc(Nc3c(C)cc(OCCC[Si](C)(O[Si](C)(C)C)O[Si](C)(CCCOc4cc(C)c(Nc5ccc(Nc6c(C)cc(C)cc6C)c6c5C(=O)c5ccccc5C6=O)c(C)c4)O[Si](C)(C)C)cc3C)c3c2C(=O)c2ccccc2C3=O)c(C)c1 (centres unmarked) [Dye 2]
- ΔEab after baking at 230° C. for 1 h [1]: 3.6
- Solubility in PGMEA (wt %) [2]: 11.0 wt %
- weight loss at 230° C. for 1 h in air from TGA [3]: 6.79%

SMILES: Cc1cc(C)c(Nc2ccc(Nc3c(C)cc(OCCC[Si](C)(C)O[Si](C)(C)O[Si](C)(C)CCCOc4cc(C)c(Nc5ccc(Nc6c(C)cc(C)cc6C)c6c5C(=O)c5ccccc5C6=O)c(C)c4)cc3C)c3c2C(=O)c2ccccc2C3=O)c(C)c1 [Dye 3]
- ΔEab after baking at 230° C. for 1 h [1]: 1.5
- Solubility in PGMEA (wt %) [2]: 9.7 wt %

SMILES: CC(C)Nc1ccc(NC(C)C)c2c1C(=O)c1ccccc1C2=O [Solvent Blue 36, reference compound]
- ΔEab after baking at 230° C. for 1 h [1]: 33 (color almost
- Solubility in PGMEA (wt %) [2]: 1.92 wt %

SMILES: Cc1cc(C)c(Nc2ccc(Nc3c(C)cc(C)cc3C)c3c2C(=O)c2ccccc2C3=O)c(C)c1 [Solvent Blue 104, 1,4-bis(mesitylamino)anthraquinone, reference compound]
- ΔEab after baking at 230° C. for 1 h [1]: 7.0
- Solubility in PGMEA (wt %) [2]: 0.6 wt %
